How the values were obtained:
[1] = test system: 786-0; test: Growth inhibition of human 786-0 cells at 10 uM after 48 hrs by SRB assay relative to control; type: functional; conditions: 786-0, 48 h, read-out: GI
[2] = Growth inhibition of human HOP92 cells at 10 uM after 48 hrs by SRB assay relative to control; type: functional; conditions: HOP-92, 48 h, read-out: GI
[3] = test system: MDA-MB-468; test: Growth inhibition of human MDA-MB-468 cells at 10 uM after 48 hrs by SRB assay relative to control; type: functional; conditions: MDA-MB-468, 48 h, read-out: GI
[4] = test system: U-251; test: Growth inhibition of human U251 cells at 10 uM after 48 hrs by SRB assay relative to control; type: functional; conditions: U-251, 48 h, read-out: GI
[5] = test system: NCI-H460; test: Growth inhibition of human NCI-H460 cells at 10 uM after 48 hrs by SRB assay relative to control; type: functional; conditions: NCI-H460, 48 h, read-out: GI
[6] = test system: SN12C; test: Growth inhibition of human SN12C cells at 10 uM after 48 hrs by SRB assay relative to control; type: functional; conditions: read-out: GI
[7] = test system: Malme-3M; test: Growth inhibition of human MALME-3M cells at 10 uM after 48 hrs by SRB assay relative to control; type: functional; conditions: read-out: GI
[8] = Growth inhibition of human SNB19 cells at 10 uM after 48 hrs by SRB assay relative to control; type: functional; conditions: SNB-19, 48 h, read-out: GI
[9] = test system: SK-MEL-2; test: Growth inhibition of human SK-MEL-2 cells at 10 uM after 48 hrs by SRB assay relative to control; type: functional; conditions: SK-MEL-2, 48 h, read-out: GI
[10] = test system: A549; test: Growth inhibition of human A549 cells at 10 uM after 48 hrs by SRB assay relative to control; type: functional; conditions: A549, 48 h, read-out: GI
[11] = Growth inhibition of human UO31 cells at 10 uM after 48 hrs by SRB assay relative to control; type: functional; conditions: UO-31, 48 h, read-out: GI
[12] = Growth inhibition of human HCC2998 cells at 10 uM after 48 hrs by SRB assay relative to control; type: functional; conditions: HCC 2998, 48 h, read-out: GI
[13] = Growth inhibition of human TK10 cells at 10 uM after 48 hrs by SRB assay relative to control; type: functional; conditions: TK-10, 48 h, read-out: GI
[14] = Growth inhibition of human HCT116 cells at 10 uM after 48 hrs by SRB assay relative to control; type: functional; conditions: HCT-116, 48 h, read-out: GI
[15] = Growth inhibition of human IGROV1 cells at 10 uM after 48 hrs by SRB assay relative to control; type: functional; conditions: IGROV-1, 48 h, read-out: GI
[16] = Growth inhibition of human DU145 cells at 10 uM after 48 hrs by SRB assay relative to control; type: functional; conditions: DU-145, 48 h, read-out: GI
[17] = test system: HT-29; test: Growth inhibition of human HT-29 cells at 10 uM after 48 hrs by SRB assay relative to control; type: functional; conditions: HT-29, 48 h, read-out: GI
[18] = Growth inhibition of human RXF393 cells at 10 uM after 48 hrs by SRB assay relative to control; type: functional; conditions: RXF 393, 48 h, read-out: GI
[19] = test system: MCF7; test: Growth inhibition of human MCF7 cells at 10 uM after 48 hrs by SRB assay relative to control; type: functional; conditions: MCF7, 48 h, read-out: GI
[20] = test system: A498; test: Growth inhibition of human A498 cells at 10 uM after 48 hrs by SRB assay relative to control; type: functional; conditions: A498, 48 h, read-out: GI
[21] = Growth inhibition of human Caki1 cells at 10 uM after 48 hrs by SRB assay relative to control; type: functional; conditions: CAKI-1, 48 h, read-out: GI
[22] = Growth inhibition of human HL-60(TB) cells at 10 uM after 48 hrs by SRB assay relative to control; type: functional; conditions: HL-60, 48 h, read-out: GI
[23] = test system: NCI-H522; test: Growth inhibition of human NCI-H522 cells at 10 uM after 48 hrs by SRB assay relative to control; type: functional; conditions: NCI-H522, 48 h, read-out: GI
[24] = test system: MDA-MB-435; test: Growth inhibition of human MDA-MB-435 cells at 10 uM after 48 hrs by SRB assay relative to control; type: functional; conditions: MDA-MB-435, 48 h, read-out: GI
[25] = Growth inhibition of human HOP62 cells at 10 uM after 48 hrs by SRB assay relative to control; type: functional; conditions: HOP-62, 48 h, read-out: GI
[26] = Growth inhibition of human LOXIMVI cells at 10 uM after 48 hrs by SRB assay relative to control; type: functional; conditions: LOX IMVI, read-out: GI
[27] = test system: SK-MEL-28; test: Growth inhibition of human SK-MEL-28 cells at 10 uM after 48 hrs by SRB assay relative to control; type: functional; conditions: SK-MEL-28, 48 h, read-out: GI
[28] = test system: NCI-H322M; test: Growth inhibition of human NCI-H322M cells at 10 uM after 48 hrs by SRB assay relative to control; type: functional; conditions: read-out: GI
[29] = Growth inhibition of human UACC257 cells at 10 uM after 48 hrs by SRB assay relative to control; type: functional; conditions: UACC-257, 48 h, read-out: GI
[30] = Growth inhibition of human RPMI8226 cells at 10 uM after 48 hrs by SRB assay relative to control; type: functional; conditions: RPMI-8226, 48 h, read-out: GI
[31] = Growth inhibition of human SW620 cells at 10 uM after 48 hrs by SRB assay relative to control; type: functional; conditions: SW-620, 48 h, read-out: GI
[32] = Growth inhibition of human COLO205 cells at 10 uM after 48 hrs by SRB assay relative to control; type: functional; conditions: COLO 205, 48 h, read-out: GI
[33] = Growth inhibition of human OVCAR5 cells at 10 uM after 48 hrs by SRB assay relative to control; type: functional; conditions: OVCAR-5, 48 h, read-out: GI
[34] = test system: ACHN; test: Growth inhibition of human ACHN cells at 10 uM after 48 hrs by SRB assay relative to control; type: functional; conditions: read-out: GI
[35] = test system: K562; test: Growth inhibition of human K562 cells at 10 uM after 48 hrs by SRB assay relative to control; type: functional; conditions: K562, 48 h, read-out: GI
[36] = species on record: Ovis aries; test: Inhibition of sheep brain tubulin polymerization at 100 uM by DAPI staining-based fluorimetric method

SMILES	inhibition of growth at 10 µM [1] [%]	inhibition of growth at 10 µM [2] [%]	inhibition of growth at 10 µM [3] [%]	inhibition of growth at 10 µM [4] [%]	inhibition of growth at 10 µM [5] [%]	inhibition of growth at 10 µM [6] [%]	inhibition of growth at 10 µM [7] [%]	inhibition of growth at 10 µM [8] [%]	inhibition of growth at 10 µM [9] [%]	inhibition of growth at 10 µM [10] [%]	inhibition of growth at 10 µM [11] [%]	inhibition of growth at 10 µM [12] [%]	inhibition of growth at 10 µM [13] [%]	inhibition of growth at 10 µM [14] [%]	inhibition of growth at 10 µM [15] [%]	inhibition of growth at 10 µM [16] [%]	inhibition of growth at 10 µM [17] [%]	inhibition of growth at 10 µM [18] [%]	inhibition of growth at 10 µM [19] [%]	inhibition of growth at 10 µM [20] [%]	further results
COc1ccc(C(=O)c2ccc3c(c2)Sc2cc(C(=O)c4ccc(OC)c(F)c4)ccc2N3C)cc1F	23	1	13	10	0	2	5	6	4	15	1	0	7	2	0	0	5	2	7	5	inhibition of growth at 10 µM [21]: 0%; inhibition of growth at 10 µM [22]: 0%; inhibition of growth at 10 µM [23]: 20%; inhibition of growth at 10 µM [24]: 0%; inhibition of growth at 10 µM [25]: 6%; inhibition of growth at 10 µM [26]: 0%; inhibition of growth at 10 µM [27]: 0%; inhibition of growth at 10 µM [28]: 0%; inhibition of growth at 10 µM [29]: 11%; inhibition of growth at 10 µM [30]: 0%; inhibition of growth at 10 µM [31]: 0%; inhibition of growth at 10 µM [32]: 0%; inhibition of growth at 10 µM [33]: 0%; inhibition of growth at 10 µM [34]: 0%; inhibition of growth at 10 µM [35]: 6%
O/N=C(/c1ccc2c(c1)Sc1ccccc1N2)c1c[nH]c2ccccc12	38	51	63	31	82	27	45	40	57	48	41	5	21	64	44	41	84	24	57	53	inhibition of growth at 10 µM [21]: 53%; inhibition of growth at 10 µM [22]: 87%; inhibition of growth at 10 µM [23]: 100%; inhibition of growth at 10 µM [24]: 100%; inhibition of growth at 10 µM [25]: 42%; inhibition of growth at 10 µM [26]: 44%; inhibition of growth at 10 µM [27]: 31%; inhibition of growth at 10 µM [28]: 26%; inhibition [36]: 15%; inhibition of growth at 10 µM [29]: 18%; inhibition of growth at 10 µM [30]: 53%; inhibition of growth at 10 µM [31]: 74%; inhibition of growth at 10 µM [32]: 45%; inhibition of growth at 10 µM [33]: 31%; inhibition of growth at 10 µM [34]: 17%; inhibition of growth at 10 µM [35]: 87%

Reference: ChEMBL document CHEMBL3792297, “Studies on phenothiazines: New microtubule-interacting compounds with phenothiazine A-ring as potent antineoplastic agents” (Bioorg Med Chem, 2016)
